The values that follow come from patent US12528819B2 (priority 2016, dated 2026).

T2 sequence (P19969 32-464 limits assumed): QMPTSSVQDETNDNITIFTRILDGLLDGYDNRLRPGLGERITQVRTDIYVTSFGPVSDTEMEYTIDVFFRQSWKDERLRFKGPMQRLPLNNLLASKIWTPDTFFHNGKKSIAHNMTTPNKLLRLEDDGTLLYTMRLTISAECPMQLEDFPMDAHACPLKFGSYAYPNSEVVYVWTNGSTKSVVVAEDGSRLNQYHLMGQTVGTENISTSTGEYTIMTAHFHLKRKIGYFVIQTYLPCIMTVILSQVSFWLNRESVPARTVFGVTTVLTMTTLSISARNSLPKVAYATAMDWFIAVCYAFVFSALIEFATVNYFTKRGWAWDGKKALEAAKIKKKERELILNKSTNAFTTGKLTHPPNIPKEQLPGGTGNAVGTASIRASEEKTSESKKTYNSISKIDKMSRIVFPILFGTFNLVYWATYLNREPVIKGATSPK
T2 sequence (P18508 39-466): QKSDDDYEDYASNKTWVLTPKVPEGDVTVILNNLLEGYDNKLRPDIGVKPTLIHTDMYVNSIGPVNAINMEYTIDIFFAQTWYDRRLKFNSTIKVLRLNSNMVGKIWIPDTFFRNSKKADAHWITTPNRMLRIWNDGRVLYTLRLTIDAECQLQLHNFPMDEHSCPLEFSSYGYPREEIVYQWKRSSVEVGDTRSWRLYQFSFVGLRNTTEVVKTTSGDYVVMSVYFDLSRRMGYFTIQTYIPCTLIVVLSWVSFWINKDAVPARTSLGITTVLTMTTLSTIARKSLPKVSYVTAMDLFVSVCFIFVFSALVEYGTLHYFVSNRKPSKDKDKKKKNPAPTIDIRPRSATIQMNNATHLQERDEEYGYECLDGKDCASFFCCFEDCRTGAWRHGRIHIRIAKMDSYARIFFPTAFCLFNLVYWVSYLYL

One data set concerns the target T1, α5β2γ2 subtype GABAAR (Homo sapiens, UniProt P18507+P31644).
T1 construct: expressed in transfected cells
T1 sequence (P31644 32-462): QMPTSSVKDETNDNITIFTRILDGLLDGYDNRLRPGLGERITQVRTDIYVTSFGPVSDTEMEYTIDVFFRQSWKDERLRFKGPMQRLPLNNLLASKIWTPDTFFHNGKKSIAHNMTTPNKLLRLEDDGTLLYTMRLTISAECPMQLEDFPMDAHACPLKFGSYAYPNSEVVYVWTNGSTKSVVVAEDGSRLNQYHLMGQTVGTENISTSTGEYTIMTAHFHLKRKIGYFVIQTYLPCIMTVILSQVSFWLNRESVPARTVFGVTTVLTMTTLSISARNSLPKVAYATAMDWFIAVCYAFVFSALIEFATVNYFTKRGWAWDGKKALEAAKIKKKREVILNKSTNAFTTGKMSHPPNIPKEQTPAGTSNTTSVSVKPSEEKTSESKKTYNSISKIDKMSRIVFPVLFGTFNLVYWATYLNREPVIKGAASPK
T1 sequence (P47870 25-512 partner limits assumed): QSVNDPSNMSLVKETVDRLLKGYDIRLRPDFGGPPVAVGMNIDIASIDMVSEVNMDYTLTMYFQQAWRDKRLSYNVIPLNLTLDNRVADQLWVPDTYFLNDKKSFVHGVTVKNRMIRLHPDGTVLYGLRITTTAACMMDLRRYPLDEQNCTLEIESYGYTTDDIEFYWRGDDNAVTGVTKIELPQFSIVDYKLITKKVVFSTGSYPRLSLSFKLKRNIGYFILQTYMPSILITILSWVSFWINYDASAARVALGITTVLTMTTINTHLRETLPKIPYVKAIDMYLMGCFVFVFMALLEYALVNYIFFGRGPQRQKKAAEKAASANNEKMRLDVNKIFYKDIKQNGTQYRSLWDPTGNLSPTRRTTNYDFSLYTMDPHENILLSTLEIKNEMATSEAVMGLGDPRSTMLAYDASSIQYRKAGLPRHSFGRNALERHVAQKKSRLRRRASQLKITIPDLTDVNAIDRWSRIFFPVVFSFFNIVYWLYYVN
T1 sequence (P18507 40-467 limits assumed): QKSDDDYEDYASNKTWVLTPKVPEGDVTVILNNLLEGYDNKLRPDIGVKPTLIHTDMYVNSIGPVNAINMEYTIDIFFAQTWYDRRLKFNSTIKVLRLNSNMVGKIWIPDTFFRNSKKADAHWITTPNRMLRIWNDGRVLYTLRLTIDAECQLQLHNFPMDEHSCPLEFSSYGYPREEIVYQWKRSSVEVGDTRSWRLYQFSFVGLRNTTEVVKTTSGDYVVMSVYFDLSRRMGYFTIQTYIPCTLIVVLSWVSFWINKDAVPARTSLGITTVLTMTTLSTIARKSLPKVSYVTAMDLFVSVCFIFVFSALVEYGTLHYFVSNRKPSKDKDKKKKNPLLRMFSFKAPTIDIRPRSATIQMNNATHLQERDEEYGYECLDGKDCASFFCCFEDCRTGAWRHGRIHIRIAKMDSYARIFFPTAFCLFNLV
As to the kind of experiment: Positive allosteric modulator activity: potentiation of EC20 GABA current in oocytes. The data set is classed as cell-based. As to conditions: read-out: GABA α5 Functional Data (potentiation), @ 100 nM, reported as ranges. The method in brief: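 Xenopus oocytes injected with 1 ng α5:β2:γ2 cDNA (1:1:10 by weight) and recorded on day 2 by two-electrode voltage clamp under MBS superfusion. Potentiation (%) = Itest/IGABA at EC20 GABA; each oocyte used for one concentration only.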
With `COCc1nnc2n1Cc1c(C#CCc3ccccc3)ncn1-c1ccc(Cl)cc1-2` [Compound 346], the activation at 0.1 µM was 20 to 50%.
Same read-out and setting: the value for `Clc1ccc2c(c1)-c1nnc(COc3ccccc3)n1Cc1c(-c3ncco3)ncn1-2` [Compound 349] was 5 to 20%; that for `Clc1ccc2c(c1)-c1nnc(COCc3ccccc3)n1Cc1c(-c3ncco3)ncn1-2` [Compound 350] was over 50%.
Still for that read-out and setting: the value for `C#Cc1ncn2c1Cn1c(COCc3ccccc3)nnc1-c1cc(Cl)ccc1-2` [Compound 351] was 20 to 50%; that for `C#Cc1ncn2c1Cn1c(COc3ccccc3F)nnc1-c1cc(Cl)ccc1-2` [Compound 353, 15-chloro-5-ethynyl-9-(2-fluorophenoxymethyl)-2,4,8,10,11-pentaazatetracyclo[11.4.0.0^2,^60.0^8,^12]heptadeca-1(17),3,5,9,11,13,15-heptaene] was over 50%; that for `CC#Cc1ncn2c1Cn1c(COc3ccccc3F)nnc1-c1cc(Cl)ccc1-2` [Compound 354] was 20 to 50%.
On the same count and under the same terms, with `Fc1ccccc1OCc1nnc2n1Cc1c(-c3ncco3)ncn1-c1ccc(Cl)cc1-2` [Compound 355] the figure was 20 to 50%.
Take `C#Cc1ncn2c1Cc1cnnn1-c1cc(Cl)ccc1-2` [Compound 356]: the activation at 0.1 µM is over 50%.
Same read-out and setting: the value for `Clc1ccc2c(c1)-n1nncc1Cc1c(C3=N[C@@H](c4ccccc4)CO3)ncn1-2` [Compound 357] was 20 to 50%.
Take `Clc1ccc2c(c1)-n1nncc1Cc1c(C3=N[C@H](c4ccccc4)CO3)ncn1-2` [Compound 358]: the activation at 0.1 µM fell in the range of 20 to 50%.
Still for that read-out and setting: with `Fc1ccc([C@H]2COC(c3ncn4c3Cc3cnnn3-c3cc(Cl)ccc3-4)=N2)cc1` [Compound 359] the figure was 5 to 20%; with `Fc1ccccc1[C@H]1COC(c2ncn3c2Cc2cnnn2-c2cc(Cl)ccc2-3)=N1` [Compound 360], 20 to 50%.
The same measure, in the same setting: with `Clc1ccc([C@H]2COC(c3ncn4c3Cc3cnnn3-c3cc(Cl)ccc3-4)=N2)cc1` [Compound 361] the figure was 20 to 50%; with `FC(F)(F)c1ccc([C@H]2COC(c3ncn4c3Cc3cnnn3-c3cc(Cl)ccc3-4)=N2)cc1` [Compound 362], 20 to 50%.
Regarding `COc1ccc2c(c1)-n1nncc1Cc1c(C3=N[C@@H](c4ccc(F)cc4)CO3)ncn1-2` [Compound 367], the activation at 0.1 µM lay in the range of 5 to 20%.
Still for that read-out and setting: with `COc1ccc2c(c1)-n1nncc1Cc1c(C3=N[C@@H](c4ccc(Cl)cc4)CO3)ncn1-2` [Compound 368] the figure was 5 to 20%; with `CC(C)c1coc(-c2ncn3c2Cc2cnnn2-c2cc(Cl)ccc2-3)n1` [Compound 387], 20 to 50%.
On the same count and under the same terms, the value for `Clc1ccc2c(c1)-n1nncc1Cc1c(C#Cc3ccccc3)ncn1-2` [Compound 395] was 5 to 20%.
The same measure, in the same setting: the value for `Cc1ccccc1C#Cc1ncn2c1Cc1cnnn1-c1cc(Cl)ccc1-2` [Compound 396] was 5 to 20%; that for `COc1ccc(C#Cc2ncn3c2Cc2cnnn2-c2cc(Cl)ccc2-3)cc1` [Compound 397] was 20 to 50%; that for `FC(F)(F)CC#Cc1ncn2c1Cc1cnnn1-c1cc(Cl)ccc1-2` [Compound 398] was 20 to 50%.
In the case of `FC(F)(F)c1ccc(C#Cc2ncn3c2Cc2cnnn2-c2cc(Cl)ccc2-3)cc1` [Compound 400], the activation at 0.1 µM lay within 20 to 50%.
For `Clc1ccc2c(c1)-n1nncc1Cc1c(C#Cc3ccccn3)ncn1-2` [Compound 401], the activation at 0.1 µM lay in the range of 5 to 20%.
Same read-out and setting: the value for `Clc1ccc2c(c1)-n1nncc1Cc1c(C#Cc3cccnc3)ncn1-2` [Compound 402] was 20 to 50%; that for `COc1ccc2c(c1)-n1nncc1Cc1c(C#Cc3ccccc3)ncn1-2` [Compound 404] was 5 to 20%; that for `COc1ccc2c(c1)-n1nncc1Cc1c(C#Cc3ccccc3C)ncn1-2` [Compound 405] was 5 to 20%.
With `COc1ccc2c(c1)-n1nncc1Cc1c(C#Cc3ccc(C(F)(F)F)cc3)ncn1-2` [Compound 406], the activation at 0.1 µM lay within 20 to 50%.
Turning to `COc1ccc2c(c1)-n1nncc1Cc1c(C#Cc3cccnc3)ncn1-2` [Compound 407], the activation at 0.1 µM fell in the range of 5 to 20%.
Still for that read-out and setting: the value for `COc1ccc2c(c1)-n1nncc1Cc1c(C#Cc3ccccn3)ncn1-2` [Compound 408] was 5 to 20%.
Still for that read-out and setting: the value for `COc1cccc(C#Cc2ncn3c2Cc2cnnn2-c2cc(OC)ccc2-3)c1` [Compound 409] was 5 to 20%.
Still for that read-out and setting: with `COc1ccc2c(c1)-n1nncc1Cc1c(C#CCc3ccccc3)ncn1-2` [Compound 413] the figure was 5 to 20%.
As for `COc1ccc(C#Cc2ncn3c2Cc2cnnn2-c2cc(OC)ccc2-3)cc1` [Compound 414], the activation at 0.1 µM was 20 to 50%.
On the same count and under the same terms, the value for `CC(C)C#Cc1ncn2c1Cc1cnnn1-c1cc(Cl)ccc1-2` [Compound 415] was 20 to 50%.
Same read-out and setting: the value for `COc1ccc2c(c1)-n1nncc1Cc1c(C#CCc3cccc(Cl)c3)ncn1-2` [Compound 417] was 5 to 20%; that for `COc1ccc2c(c1)-n1nncc1Cc1c(C#CCc3cccc(OC(F)(F)F)c3)ncn1-2` [Compound 418] was 20 to 50%; that for `COc1ccc2c(c1)-n1nncc1Cc1c(C#CCc3cccc(F)c3)ncn1-2` [Compound 419] was 20 to 50%.
Same read-out and setting: with `COc1ccc2c(c1)-n1nncc1Cc1c(C#CCc3ccccc3OC(F)(F)F)ncn1-2` [Compound 420] the figure was 5 to 20%; with `COCc1nnc2n1Cc1c(C#CCc3cccc(F)c3)ncn1-c1ccc(Cl)cc1-2` [Compound 421], 20 to 50%.
Take `COCc1nnc2n1Cc1c(C#CCc3cccc(Cl)c3)ncn1-c1ccc(Cl)cc1-2` [Compound 422]: the activation at 0.1 µM was 20 to 50%.
The same measure, in the same setting: with `COCc1nnc2n1Cc1c(C#CCc3cccc(OC(F)(F)F)c3)ncn1-c1ccc(Cl)cc1-2` [Compound 423] the figure was 5 to 20%; with `CC(C)C#Cc1ccc2c(c1)-n1nncc1Cc1c(Br)ncn1-2` [Compound 454], 5 to 20%.

A further data set concerns the target T2, GABAA α5 receptor (Rattus norvegicus, UniProt P18508+P19969).
T2 construct: from tissue; host or cells: rat brain in vivo; hippocampus versus cerebellum
Kind of data set: GABAA α5 receptor occupancy with Ro 15-4513 tracer (hippocampus vs cerebellum). Type of data set: in vivo. The following applies: tracer 1 μg/kg, i.v., after vehicle administration. The source says:
Food and water were available ad libitum.
In the case of `CCOC(=O)c1ncn2c1CN(C)C(=O)c1cc(N=[N+]=[N-])ccc1-2` [Ro 15-4513], the “levels of Ro 15-4513 in hippocampus compared with cerebellum” value is recorded as over 5 fold.
